# Test results reported in patent US20040171566A1, “Antisense modulation of p38 mitogen activated protein kinase expression” (priority 1999, published 2004).
# In the oligonucleotide strings, read from the 5' end, every base follows the letter of its sugar. An asterisk marks phosphorothioate; unmarked linkages are phosphodiester. Other units and linkages are bracketed, terminal groups are in braces. A string of capitals states the bases alone. e = 2'-O-(2-methoxyethyl) (MOE); [5mC] = 5-methylcytosine; d = 2'-deoxy (DNA)
# Tests used:
# rat p38α mRNA [1] = assay: Inhibition of rat p38α mRNA expression in A-10 cells, Northern blot; assay type: cell-based; conditions: Rat A-10 cells, 200 nM oligonucleotide, 24 hours
# Procedure: Rat p38α antisense oligonucleotides were screened in Rat A-10 cells. A-10 cells (American Type Culture Collection, Manassas, Va.) were grown in high-glucose DMEM (Life Technologies, Gaithersburg, Md.) medium containing 10% fetal calf serum (FCS). Cells were treated with oligonucleotide as described in Example 2. Oligonucleotide concentration was 200 nM. mRNA was isolated 24 hours after time zero and quantitated by Northern blot as described in Example 2.
# rat p38α mRNA [2] = assay: Inhibition of rat p38α mRNA expression in rat cardiac myocytes, Northern blot; assay type: cell-based; conditions: 1 μM oligonucleotide, 24 hrs
# Procedure: Cells were grown as described in Zechner et al. and transfected with oligonucleotide as described in Example 2. Oligonucleotide concentration was 1 μM. mRNA was isolated 24 hrs after time zero and quantitated using Northern blotting as described in Example 2. An antisense oligonucleotide targeted to JNK-2 was used as a non-specific target control.
# human p38β mRNA [3] = assay: Inhibition of human p38β mRNA expression in HUVEC cells, Northern blot; assay type: cell-based
# Procedure: The human Jurkat T-cell line (American Type Culture Collection, Manassas, Va.) was maintained in RPMI 1640 growth media supplemented with 10% fetal bovine serum (FBS; Hyclone, Logan, Utah). HUVEC cells (Clonetics, San Diego, Calif.) were cultivated in endothelial basal media supplemented with 10% FBS (Hyclone, Logan, Utah).
# (§1) HUVEC cells were allowed to reach 75% confluency prior to use. The cells were washed twice with warm (37° C.) OPTI-MEM™ (Life Technologies). The cells were incubated in the presence of the appropriate culture medium, without the growth factors added, and the oligonucleotide formulated in LIPOFECTIN7 (Life Technologies), a 1:1 (w/w) liposome formulation of the cationic lipid N-[1-(2,3-dioleyloxy)propyl]-n,n,n-trimethylammonium chloride (DOTMA), and dioleoyl phosphotidylethanolamine (DOPE) in membrane filtered water. HUVEC cells were treated with 100 nM oligonucleotide in 10 μg/ml LIPOFECTIN7. Treatment was for four hours.
# (§2) Total mRNA was isolated using the RNEASY7 Mini Kit (Qiagen, Valencia, Calif.; similar kits from other manufacturers may also be used), separated on a 1% agarose gel, transferred to HYBOND™-N+ membrane (Amersham Pharmacia Biotech, Piscataway, N.J.), a positively charged nylon membrane, and probed. p38 MAPK probes were made using the Prime-A-Gene7 kit (Promega Corporation, Madison, Wis.), a random primer labeling kit, using mouse p38α or p38β cDNA as a template. A glyceraldehyde 3-phosphate dehydrogenase (G3PDH) probe was purchased from Clontech (Palo Alto, Calif.), Catalog Number 9805-1. The fragments were purified from low-melting temperature agarose, as described in Maniatis, T., et al., Molecular Cloning: A Laboratory Manual, 1989. The G3PDH probe was labeled with REDIVUE™ ^32P-dCTP (Amersham Pharmacia Biotech, Piscataway, N.J.) and Strip-EZ labelling kit (Ambion, Austin, Tex.). mRNA was quantitated by a PhosphoImager (Molecular Dynamics, Sunnyvale, Calif.).
# Every oligonucleotide tested gave at least 50% inhibition.
# Oligonucleotides 17893 (SEQ ID NO. 27), 17899 (SEQ ID NO:33), 17904 (SEQ ID NO. 38), and 17907 (SEQ ID NO. 41) were chosen for dose response studies. HUVEC cells were cultured and treated as described in Example 2 except that the oligonucleotide concentration was varied as shown in Table 6. The Lipofectin7/Oligo ratio was maintained at 3 μg Lipofectin7/100 nM oligo, per ml. mRNA was measured by Northern blot as described in Example 2.
# human p38β mRNA [4] = assay: Human p38β mRNA expression in T-24 cells
# human p38α mRNA [5] = assay: Effect of human p38β oligonucleotides on human p38α mRNA in HUVEC cells; assay type: cell-based
# Procedure: as §1
# as §2, with “A glyceraldehyde 3-phosphate dehydrogenase (G3PDH) probe was purchased from Clontech (Palo Alto, Calif.), Catalog Number 9805-1. The fragments were purified from low-melting temperature agarose, as described in Maniatis, T., et al., Molecular Cloning: A Laboratory Manual, 1989.” left out, “Calif.). […]” for “Calif.).”
# human p38α mRNA [6] = assay: Human p38α mRNA expression in T-24 cells; conditions: initial screen of human p38β oligonucleotides
# [7] = 100 nM oligonucleotide in 10 μg/ml LIPOFECTIN, four hours, Northern blot
Substance,% p38α mRNA EXPRESSION (rat p38α mRNA [1]) [%],% p38α mRNA EXPRESSION (rat p38α mRNA [2]) [%],% p38α mRNA INHIBITION (rat p38α mRNA [2]) [%],% mRNA EXPRESSION (human p38β mRNA [3]; [7]) [%],% mRNA Inhibition (human p38β mRNA [3]; [7]) [%],% mRNA EXPRESSION (human p38β mRNA [3]; dose 10 nM) [%],% mRNA Inhibition (human p38β mRNA [3]; dose 10 nM) [%],% mRNA EXPRESSION (human p38β mRNA [3]; dose 25 nM) [%],% mRNA Inhibition (human p38β mRNA [3]; dose 25 nM) [%],% mRNA EXPRESSION (human p38β mRNA [3]; dose 50 nM) [%],% mRNA Inhibition (human p38β mRNA [3]; dose 50 nM) [%],% mRNA EXPRESSION (human p38β mRNA [3]; dose 100 nM) [%],% mRNA Inhibition (human p38β mRNA [3]; dose 100 nM) [%],"% p38β mRNA Expression (human p38β mRNA [4]; dose 50 nM, relative to control oligonucleotide = 100%) [%]","% p38β mRNA Expression (human p38β mRNA [4]; dose 100 nM, relative to control oligonucleotide = 100%) [%]","% p38β mRNA Expression (human p38β mRNA [4]; dose 200 nM, relative to control oligonucleotide = 100%) [%]",% p38β mRNA Expression (human p38β mRNA [4]; initial screen of human p38β oligonucleotides) [%],IC50 for p38α compared to p38β (human p38α mRNA [5]),effect on p38α mRNA expression (human p38α mRNA [5]),% p38α mRNA EXPRESSION (human p38α mRNA [6]) [%]
GoGoCoCoAsGsAsGsAsCsTsGsAsAsTsGoToAoGoT (antisense eGeGe[5mC]e[5mC]eA*dG*dA*dG*dA*d[5mC]*dT*dG*dA*dA*dT*eGeTeAeGeT) [ISIS 21846],8,41,59,–,–,–,–,–,–,–,–,–,–,–,–,–,–,–,–,–
"TGCGGCACCTCCCACACGGT (chimeric, phosphorothioate, further chemistry not given here) [ISIS 17893]",–,–,–,4,96,37,63,18,82,16,84,19,81,28,27,16,31,approximately 4 fold,showed an effect on p38α mRNA expression,61
